Values after ≈ are worked out from the molar mass of the structure shown. One block for each compound: values may come before it.
Tests used:
Loucy cells [1] = assay: In situ click reaction with AlexaFluor488-azide, flow cytometry, Loucy; type: cell-based; conditions: 40 μg mL^−1, 2 days
Experimental: (§1) In situ “click” reactions were performed using cells harvested after 2 days of treatment with DMSO, 3-Eth-5-NIdR (10, 40, or 100 μg mL^−1), 5-NIdR (100 μg mL^−1) or 5-ethynyl-2′-deoxyuridine (EdU) (10 μM). All cells were fixed with cold methanol. Under minimal lighting, cells were treated with 0.3 mL of saponin-based permeabilization and wash buffer for 45 min at 37° C. Click reactions were initiated by adding the click-iT reaction cocktail according to the instructions of the manufacturer (Invitrogen) followed by incubation at 37° C. for 90 min. Cells were then washed two times with saponin-based permeabilization and wash buffer. Cell pellets were dislodged using 0.5 mL solution of 10 μg mL^−1 PI and RNAase A in saponin-based permeabilization and wash buffer and then incubated for at least 15 min prior to flow cytometry analysis.
MOLT4 cells were treated with DMSO, EdU (a “clickable” thymidine analogue), 5-NIdR, and 3-Eth-5-NIdR for 2 days and then washed with PBS to remove any nucleoside and/or nucleotide not incorporated into DNA. After fixation and permeabilization, the cells were treated with AlexaFluor488-azide and Cu(I) catalyst to commence “clicking” of any incorporated nonnatural nucleotide. […] Finally, it should be emphasized that low levels (<0.5%) of AlexaFluor488 staining are detected in cells treated with 100 μg mL^−1 5-NIdR.

J45.01 cells = assay: Cell proliferation assay (trypan blue), J45.01; type: cell-based; conditions: J45.01, up to 72 h
Experimental: (§2) Cells were seeded at a population density of ˜200,000 cells mL-1 and treated with variable concentrations of non-natural nucleoside (0.1-100 μg mL-1) for up to 72 h. The final DMSO concentration in all experiments was 0.1%. Cell viability was assessed via trypan blue staining and counting the number of viable (clear) versus non-viable (blue) cells under a microscopy using a hemocytometer. The IC50 values for both nonnatural nucleosides were obtained using a nonlinear regression curve fit of the data to eq 3. LD50 values for the non-natural nucleosides were calculated using identical approaches.
(§3) Identical cell-based experiments were performed with the other ALL cell lines, and the corresponding IC50 and LD50 values for 5-NIdR and 3-Eth-5-NIdR against each cell line are summarized in Table 2. […] The increased potency of 3-Eth-5-NIdR likely reflects the higher catalytic efficiency for the corresponding nucleoside triphosphate to act as a chain-terminating substrate for TdT. […] In general, there is an excellent correlation (R^2=0.695, p<0.0001) between the anti-cancer effects of the non-natural nucleoside with TdT level. Similar analyses were performed by plotting the LD50 values of 3-Eth-5-NIdR as a function of TdT content (FIG. 3E).

CEM-C7 cells = assay: Cell proliferation assay (trypan blue), CEM-C7; type: cell-based; conditions: CEM-C7, up to 72 h
Experimental: as §2, §3

Jurkat cells = assay: Cell proliferation assay (trypan blue), Jurkat; type: cell-based; conditions: up to 72 h
Experimental: as §2, §3

MOLT4 cells [2] = assay: Cell proliferation assay (trypan blue, viable vs non-viable cells), MOLT4; type: cell-based; conditions: for IC50 / LD50: MOLT4, up to 72 h
Experimental: as §2
This hypothesis was tested by measuring the cytostatic and/or cytotoxic effects of the corresponding nucleoside, 3-Eth-5-NIdR, and 5-nitroindolyl-2′-deoxynucleoside (5-NIdR) against various ALL cell lines including MOLT4, CEM-C7, Jurkat, RS4(11), JS45.01, and Loucy. Western blot analyses was first performed to determine TdT levels in each ALL cell line. […] We next tested the efficacy of 5-NIdR and 3-Eth-5-NIdR by treating exponentially growing cells with variable concentrations (0.1-100 μg mL^−1) of each non-natural nucleoside for time periods of up to 3 days.

MOLT4 cells [3] = assay: In situ click reaction with AlexaFluor488-azide, flow cytometry, MOLT4; type: cell-based
Experimental: as §1
MOLT4 cells were treated with DMSO, EdU (a “clickable” thymidine analogue), 5-NIdR, and 3-Eth-5-NIdR for 2 days and then washed with PBS to remove any nucleoside and/or nucleotide not incorporated into DNA. After fixation and permeabilization, the cells were treated with AlexaFluor488-azide and Cu(I) catalyst to commence “clicking” of any incorporated nonnatural nucleotide. Dual parameter flow cytometry applying PI staining coupled with detection of the AlexaFluor488 fluorophore was used to detect the “clicked” non-natural nucleotide in cellular DNA. […] This high amount of “clicked” DNA reflects transport of EdU into the cell, conversion to the corresponding nucleoside triphosphate, and incorporation into the DNA of replicating cells. MOLT4 cells treated with 10 μg mL^−1 3-Eth-5-NIdR also show appreciable levels of AlexaFluor488 stained DNA (2.8%) after 2 days of treatment. Furthermore, the amount of “clicked” DNA is dosedependent as treatment with 40 μg mL^−1 Eth-5-NIdR yields a […] increase in AlexaFluor488 staining (6.5%). Identical experiments were performed using the Loucy cell line that lacks TdT and thus is less sensitive to the cytotoxic effects of the non-natural nucleoside (vide inf ra). […] Treatment with 40 μg mL^−1 of 3-Eth-5-NIdR produces low levels of “clicked” DNA (0.02%). […] Once incorporated into DNA, the non-natural nucleotide inhibits cellular DNA replication and induces apoptosis. Finally, it should be emphasized that low levels (<0.5%) of AlexaFluor488 staining are detected in cells treated with 100 μg mL^−1 5-NIdR.

MOLT4 cells [4] = assay: Apoptosis measurement (Annexin V-Alexa Fluor 488 / propidium iodide flow cytometry); type: cell-based; conditions: for PI uptake (necrotic cell death): MOLT4
Experimental: Cells were treated with DMSO (vehicle), 5-NIdR (100 μg mL-1), and 3-Eth-5-NIdR (10 and 40 μg mL-1) as described above. Cells were harvested by centrifugation and washed in phosphate-buffered saline and resuspended in 100 μL of binding buffer containing AnnexinV-Alexa Fluor 488 conjugate. Cells were treated with propidium iodide (PI) and incubated at RT for 15 min followed by flow cytometry analysis. This enables live cells (unstained with either Alexa Fluor 488 or PI) to be discriminated from early apoptotic (stained with Alexa Fluor 488), late apoptotic cells (stained with Alexa Fluor 488 and PI), and necrotic cells (stained with PI).
The mechanism by which these non-natural nucleosides induce cell death was interrogated using dual parameter FACS analyses measuring propidium iodide uptake and Alexa Fluor488 annexin V conjugate staining. This allows live cells (unstained with either fluorophore) to be distinguished from cells that are early apoptotic (annexin V staining only), late apoptotic (propidium iodide and annexin V staining), and necrotic (propidium iodide staining only). […] In this case, treatment with 100 μg mL^−1 5-NIdR causes a 5-fold increase in early and late stage apoptosis, respectively. […] The induction of apoptosis was also independently confirmed by using agarose gel electrophoresis to observe DNA cleavage sites between nucleosomes that occur in chromatin at ˜200-base pair intervals.

RS4(11) cells = assay: Cell proliferation assay (trypan blue), RS4(11); type: cell-based; conditions: up to 72 h
Experimental: as §2, §3

Loucy cells [5] = assay: Cell proliferation assay (trypan blue), Loucy; type: cell-based; conditions: for IC50 / LD50: Loucy (TdT-negative), up to 72 h
Experimental: as §2

[6] = target: terminal deoxynucleotidyl transferase (TdT) (Bos taurus, UniProt P06526); assay: Incorporation of natural and non-natural nucleotides by TdT (polymerization assay, Michaelis-Menten kinetics); type: biochemical
Sequence of terminal deoxynucleotidyl transferase (TdT) (P06526 whole entry): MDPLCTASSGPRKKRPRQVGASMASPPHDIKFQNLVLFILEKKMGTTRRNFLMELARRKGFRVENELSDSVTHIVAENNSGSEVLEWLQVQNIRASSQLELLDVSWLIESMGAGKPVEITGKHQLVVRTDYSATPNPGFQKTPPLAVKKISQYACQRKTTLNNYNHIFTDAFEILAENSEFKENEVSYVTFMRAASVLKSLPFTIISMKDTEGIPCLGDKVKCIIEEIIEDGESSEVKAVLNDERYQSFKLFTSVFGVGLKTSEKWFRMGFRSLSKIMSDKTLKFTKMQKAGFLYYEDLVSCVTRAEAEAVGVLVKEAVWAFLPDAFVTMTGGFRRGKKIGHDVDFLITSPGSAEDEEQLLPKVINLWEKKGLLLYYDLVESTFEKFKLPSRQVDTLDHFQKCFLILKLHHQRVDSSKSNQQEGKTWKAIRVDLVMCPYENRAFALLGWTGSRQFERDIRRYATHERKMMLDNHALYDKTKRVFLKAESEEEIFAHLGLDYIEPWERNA
Experimental: All enzymatic assays were performed as previously described. […] Reactions were quenched with 200 Mm EDTA at variable times (5-600 s) and analyzed using denaturing gel electrophoresis. Time courses in product formation were fitted using eq 1: Y=mt+b(1) (1)
where y is the amount of product, m is the rate of the reaction, t is time, and b is the Y-intercept. Km and Vmax values were determined by fits of the data points to the Michaelis-Menten equation: […]
where Vmax is the maximal rate of nucleotide incorporation, Km is the Michaelis constant for dNTP, and [dNTP] is the concentration of nucleotide substrate. The IC50 value for 3-Eth-5-NITP was obtained using a nonlinear regression curve fit of the data to eq 3:
The biological function of TdT is to expand immunological diversity by randomly incorporating dNTPs into single-stranded DNA during V(D)J recombination. […] TdT also utilizes nucleotide analogues including 2′,3′-dideoxynucleotides, dinucleoside 5′,5′-tetraphosphates, and intrinsically fluorescent nucleotide analogues. In this report, we tested if TdT also incorporates indolyl-2′-deoxyribose-5′-triphosphates that bear non-natural moieties such as ethynyl and nitro groups at the 3- and 5-position, respectively, of the indole base. […] Aliquots of the reaction were quenched with EDTA at variable time points, and the polymerization reactions were then subjected to denaturing polyacrylamide gel electrophoresis to separate extended primers from unreacted substrate.
Time courses in product formation were generated using pseudo-first order reaction conditions in which 6 units of TdT were incubated with 1.5 μM DNA substrate and mixed with variable concentrations of non-natural nucleotide (0.05-50 μM). Each time course was fit to an equation for a straight line to define the rate of nucleotide incorporation (data not shown).

[7] = MOLT4, 40 μg mL^−1, compared to DMSO
[8] = incorporation by TdT, 6 units TdT, 1.5 μM single-stranded DNA substrate
[9] = MOLT4, 100 μg mL^−1, 2 days post-treatment
[10] = MOLT4, 100 μg mL^−1, compared to DMSO

SMILES: C#Cc1cn([C@H]2C[C@H](O)[C@@H](CO)O2)c2ccc([N+](=O)[O-])cc12 [3-Eth-5-NIdR, 3-ethynyl-5-nitroindolyl-2′-deoxynucleoside]
clicked DNA (AlexaFluor488 staining) (Loucy cells [1]): 0.02%
IC50 (J45.01 cells): 34 ± 6 µg/mL (≈ 112 µM)
LD50 (J45.01 cells): 71 ± 6 µg/mL
IC50 (CEM-C7 cells): 23 ± 2 µg/mL (≈ 76.1 µM)
LD50 (CEM-C7 cells): ~100 µg/mL
IC50 (Jurkat cells): 49 ± 1 µg/mL (≈ 162 µM)
LD50 (Jurkat cells): ~100 µg/mL
cytostatic and cytotoxic effects (MOLT4 cells [2]; MOLT4, 10 μg mL^−1): cytostatic and cytotoxic effects are observed
IC50 (MOLT4 cells [2]): 14.1 ± 2.4 µg/mL (≈ 46.6 µM)
LD50 (MOLT4 cells [2]): 27.7 ± 1.7 µg/mL
IC50 (MOLT4 cells [2]; listed as 3-Eth-5-NIdr): 14 ± 2 µg/mL (≈ 46.3 µM)
LD50 (MOLT4 cells [2]; listed as 3-Eth-5-NIdr): 28 ± 4 µg/mL
AlexaFluor488 stained (clicked) DNA (MOLT4 cells [3]; MOLT4, 10 μg mL^−1, 2 days): 2.8%
AlexaFluor488 staining (clicked DNA) (MOLT4 cells [3]; MOLT4, 40 μg mL^−1, 2 days): 6.5%
increase in AlexaFluor488 staining (MOLT4 cells [3]; MOLT4, 40 vs 10 μg mL^−1): 2.5 fold
PI uptake (necrotic cell death) (MOLT4 cells [4]): no significant PI uptake
Early apoptoic cells (%) (MOLT4 cells [4]; MOLT4, 10 μg mL^−1): 10.5 ± 1.5%
Late apoptoic cells (%) (MOLT4 cells [4]; MOLT4, 10 μg mL^−1): 5.4 ± 1.0%
Necrotic cells (%) (MOLT4 cells [4]; MOLT4, 10 μg mL^−1): 0.7 ± 0.2%
Viable cells (%) (MOLT4 cells [4]; MOLT4, 10 μg mL^−1): 83.4 ± 2.7%
level of apoptosis compared with 100 μg mL^−1 5-NIdR (MOLT4 cells [4]; MOLT4, 10 μg mL^−1): equivalent levels of apoptosis
Early apoptoic cells (%) (MOLT4 cells [4]; MOLT4, 40 μg mL^−1): 68.8 ± 0.9%
Late apoptoic cells (%) (MOLT4 cells [4]; MOLT4, 40 μg mL^−1): 23.7 ± 4.9%
Necrotic cells (%) (MOLT4 cells [4]; MOLT4, 40 μg mL^−1): 1.2 ± 0.2%
Viable cells (%) (MOLT4 cells [4]; MOLT4, 40 μg mL^−1): 6.3 ± 3.7%
increase in early stage apoptosis (MOLT4 cells [4]; [7]): 13 fold
increase in late stage apoptosis (MOLT4 cells [4]; [7]): 7 fold
IC50 (RS4(11) cells): 23 ± 2 µg/mL (≈ 76.1 µM)
LD50 (RS4(11) cells): 57 ± 2 µg/mL
IC50 (Loucy cells [5]): 62 ± 5 µg/mL (≈ 205 µM)
LD50 (Loucy cells [5]): 63 ± 3 µg/mL
cytostatic or cytotoxic effects (Loucy cells [5]; Loucy, 40 μg mL^−1): significant cytostatic or cytotoxic effects are not observed

extension by TdT beyond the incorporated nucleotide ([6]; 100 μM nucleotide, 14-mer DNA, gel (FIG. 2B)): rivals that of the natural purines
Km [6, 8]: 4.6 ± 0.6 µM
Vmax [6, 8]: 11.5 ± 0.4 nM/s
SMILES: O=[N+]([O-])c1ccc2c(ccn2C2CC(O)C(COP(=O)(O)OP(=O)(O)OP(=O)(O)O)O2)c1 (stereo not drawn) [5-NITP]
utilization by TdT (elongation of 14-mer DNA substrate) ([6]; 100 μM nucleotide, 6 units TdT, 1.5 μM 14-mer (FIG. 2B)): utilized by TdT as efficiently as the natural purines

SMILES: O=[N+]([O-])c1ccc2c(ccn2[C@H]2C[C@H](O)[C@@H](CO)O2)c1 [5-NIdR, 5-nitroindolyl-2′-deoxynucleoside, reference compound]
IC50 (J45.01 cells): ~100 µg/mL (≈ 359 µM)
LD50 (J45.01 cells): >>100 μg mL^−1
IC50 (CEM-C7 cells): ~100 µg/mL (≈ 359 µM)
LD50 (CEM-C7 cells): >>100 μg mL^−1
IC50 (Jurkat cells): ~100 µg/mL (≈ 359 µM)
LD50 (Jurkat cells): >>100 μg mL^−1
increase in the number of non-viable cells (MOLT4 cells [2]; [9]): 2.5 fold
reduction in the number of viable cells (MOLT4 cells [2]; [9]): ~5 fold
IC50 (MOLT4 cells [2]): 34 ± 6 µg/mL (≈ 122 µM)
LD50 (MOLT4 cells [2]): ~100 µg/mL
AlexaFluor488 staining (MOLT4 cells [3]; 100 μg mL^−1, 2 days, cell line not given): < 0.5%
PI uptake (necrotic cell death) (MOLT4 cells [4]): no significant PI uptake
Early apoptoic cells (%) (MOLT4 cells [4]; MOLT4, 100 μg mL^−1): 26.5 ± 3.7%
Late apoptoic cells (%) (MOLT4 cells [4]; MOLT4, 100 μg mL^−1): 18.9 ± 3.4%
Necrotic cells (%) (MOLT4 cells [4]; MOLT4, 100 μg mL^−1): 1.5 ± 0.5%
Viable cells (%) (MOLT4 cells [4]; MOLT4, 100 μg mL^−1): 53.1 ± 6.7%
increase in early stage apoptosis (MOLT4 cells [4]; [10]): 5 fold
increase in late stage apoptosis (MOLT4 cells [4]; [10]): 5 fold
IC50 (RS4(11) cells): >100 µg/mL
LD50 (RS4(11) cells): >>100 μg mL^−1
IC50 (Loucy cells [5]): >>100 μg mL^−1
LD50 (Loucy cells [5]): >>100 μg mL^−1
increase in the number of non-viable cells (Loucy cells [5]; Loucy, 100 μg mL^−1): does not cause a substantial increase
reduction in the number of viable cells (Loucy cells [5]; Loucy, 100 μg mL^−1): < 25%
